Activity calls are given as the source filed them.
Assays:
Bcl-2-like protein 1 [1] = biological target: T1, Bcl-2-like protein 1 (Homo sapiens, UniProt Q07817); assay: Binding affinity to full length human Bcl-xl expressed in Escherichia coli BL21 (DE3) assessed as inhibition constant preincubated for 30 mins followed by 5-FAM-QEDIIIINIARHLAQVGDSMD-RSIPPG tracer addition and measured after 20 mins by fluorescence polarization assay
[2] = biological target: T2, Apoptosis regulator Bcl-2 (Homo sapiens, UniProt P10415); assay: Binding affinity to full length human Bcl-2 expressed in Escherichia coli BL21 (DE3) assessed as inhibition constant preincubated for 30 mins followed by 5-FAM-QEDIIIINIARHLAQVGDSMD-RSIPPG tracer addition and measured after 20 mins by fluorescence polarization assay
[3] = biological target: T3, Induced myeloid leukemia cell differentiation protein Mcl-1 (Homo sapiens, UniProt Q07820); assay: Binding affinity to full length human MCL1 expressed in Escherichia coli BL21 (DE3) assessed as inhibition constant preincubated for 30 mins followed by 5-FAM-QEDIIIINIARHLAQVGDSMD-RSIPPG tracer addition and measured after 20 mins by fluorescence polarization assay
HEK-293T = assay: Cytotoxicity against HEK293T cells assessed as reduction in cell viability incubated for 48 hrs by CCK8 assay; conditions: Homo sapiens
HeLa = assay: cells; conditions: Homo sapiens, 48 h
Description: Cytotoxicity against human HeLa cells assessed as inhibition of cell growth incubated for 48 hrs by CCK8 assay

HL-60 = assay: cells; conditions: Homo sapiens, HL-60, 48 h
Description: Cytotoxicity against human HL-60 cells assessed as inhibition of cell growth incubated for 48 hrs by CCK8 assay

RS4-11 = assay: cells; conditions: Homo sapiens, RS4-11, 48 h
Description: Cytotoxicity against human RS4-11 cells assessed as inhibition of cell growth incubated for 48 hrs by CCK8 assay

[4] = Cytotoxicity against HEK293T cells assessed as cell viability at 20 uM incubated for 48 hrs by CCK8 assay relative to control; type: cell-based, HEK-293T; conditions: human, read-out: Activity
Bcl-2-like protein 1 [5] = biological target: T1, Bcl-2-like protein 1; assay: Binding affinity to full length human Bcl-xl expressed in Escherichia coli BL21 (DE3) at up to 100 uM preincubated for 30 mins followed by 5-FAM-QEDIIIINIARHLAQVGDSMD-RSIPPG tracer addition and measured after 20 mins by fluorescence polarization assay; conditions: dose microM <=100, time 50.0 min
[6] = biological target: T2, Apoptosis regulator Bcl-2; assay: Binding affinity to full length human Bcl-2 expressed in Escherichia coli BL21 (DE3) at up to 100 uM preincubated for 30 mins followed by 5-FAM-QEDIIIINIARHLAQVGDSMD-RSIPPG tracer addition and measured after 20 mins by fluorescence polarization assay; conditions: dose microM <=100, time 50.0 min
[7] = biological target: T3, Induced myeloid leukemia cell differentiation protein Mcl-1; assay: Binding affinity to full length human MCL1 expressed in Escherichia coli BL21 (DE3) at up to 100 uM preincubated for 30 mins followed by 5-FAM-QEDIIIINIARHLAQVGDSMD-RSIPPG tracer addition and measured after 20 mins by fluorescence polarization assay; conditions: dose microM <=100, time 50.0 min
Bcl-2-like protein 1 [8] = biological target: T1, Bcl-2-like protein 1; assay: Binding affinity to full length human Bcl-xl expressed in Escherichia coli BL21 (DE3) at 100 uM preincubated for 30 mins followed by 5-FAM-QEDIIIINIARHLAQVGDSMD-RSIPPG tracer addition and measured after 20 mins by fluorescence polarization assay relative to control; conditions: time 50.0 min
[9] = biological target: T2, Apoptosis regulator Bcl-2; assay: Binding affinity to full length human Bcl-2 expressed in Escherichia coli BL21 (DE3) at 100 uM preincubated for 30 mins followed by 5-FAM-QEDIIIINIARHLAQVGDSMD-RSIPPG tracer addition and measured after 20 mins by fluorescence polarization assay relative to control; conditions: time 50.0 min
[10] = biological target: T3, Induced myeloid leukemia cell differentiation protein Mcl-1; assay: Binding affinity to full length human MCL1 expressed in Escherichia coli BL21 (DE3) at 100 uM preincubated for 30 mins followed by 5-FAM-QEDIIIINIARHLAQVGDSMD-RSIPPG tracer addition and measured after 20 mins by fluorescence polarization assay relative to control; conditions: time 50.0 min

T2 sequence (P10415 whole entry): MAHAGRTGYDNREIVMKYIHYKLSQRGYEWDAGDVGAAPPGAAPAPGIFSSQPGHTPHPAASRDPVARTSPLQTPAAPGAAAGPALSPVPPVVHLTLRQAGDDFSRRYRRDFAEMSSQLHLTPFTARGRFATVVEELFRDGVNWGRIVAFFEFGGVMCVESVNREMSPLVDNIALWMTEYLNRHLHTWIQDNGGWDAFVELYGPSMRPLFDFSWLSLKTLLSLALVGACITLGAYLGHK
T3 sequence (Q07820 whole entry): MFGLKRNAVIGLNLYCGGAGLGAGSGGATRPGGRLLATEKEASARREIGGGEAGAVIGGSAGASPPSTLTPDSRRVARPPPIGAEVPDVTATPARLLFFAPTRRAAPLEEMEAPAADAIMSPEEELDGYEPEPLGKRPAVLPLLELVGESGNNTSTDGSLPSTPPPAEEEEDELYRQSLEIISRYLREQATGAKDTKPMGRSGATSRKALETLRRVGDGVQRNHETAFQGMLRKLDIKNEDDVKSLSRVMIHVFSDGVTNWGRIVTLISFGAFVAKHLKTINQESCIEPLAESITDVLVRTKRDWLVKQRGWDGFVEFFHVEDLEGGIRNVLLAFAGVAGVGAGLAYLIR
T1 sequence (Q07817 whole entry): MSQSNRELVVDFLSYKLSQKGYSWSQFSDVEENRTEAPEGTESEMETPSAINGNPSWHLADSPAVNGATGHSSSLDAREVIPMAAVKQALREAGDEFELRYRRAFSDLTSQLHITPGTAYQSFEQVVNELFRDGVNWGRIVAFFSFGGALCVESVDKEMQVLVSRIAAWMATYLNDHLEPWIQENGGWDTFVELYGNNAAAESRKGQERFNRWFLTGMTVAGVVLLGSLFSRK

Ki (Bcl-2-like protein 1 [1]) [µM] | Ki [2] [µM] | Ki [3] [µM] | IC50 (HeLa) [µM] | IC50 (HL-60) [µM] | IC50 (RS4-11) [µM] | Activity (Bcl-2-like protein 1 [5]) | Activity [6] | Activity [7] | inhibition (Bcl-2-like protein 1 [8]) [%] | inhibition [9] [%] | inhibition [10] [%] | Structure (SMILES) | IC50 (HEK-293T) [µM] | viability at 48 h, 20 µM [4] [%]
1.7 | 5.2 | 0.51 | > 20 | 1.3 | 3.9 | – | – | – | – | – | – | O=C(NCCNS(=O)(=O)c1cc(-c2ccccc2Oc2ccc(O)c(O)c2)cs1)Nc1cc(C(F)(F)F)cc(C(F)(F)F)c1 | > 50 | –
1.7 | 8.4 | 0.77 | > 50 | > 20 | > 50 | – | – | – | – | – | – | O=C(NCCNS(=O)(=O)c1cc(-c2ccccc2Oc2ccc(O)c(O)c2)cs1)Nc1cc(Cl)cc(Cl)c1 | > 20 | –
– | – | – | > 20 | 7.1 | 10.1 | inactive | inactive | inactive | – | – | – | O=C(NCCNS(=O)(=O)c1ccc(-c2ccccc2O[C@H]2CC[C@H](O)CC2)s1)Nc1cc(C(F)(F)F)cc(C(F)(F)F)c1 | – | 50
– | 5.6 | 0.84 | > 50 | 4.3 | 4.8 | inactive | – | – | – | – | – | O=S(=O)(NCCNC(=S)Nc1cc(C(F)(F)F)cc(C(F)(F)F)c1)c1sccc1-c1ccccc1Oc1ccc(O)c(O)c1 | 7.5 | –
1.7 | 3.6 | 0.94 | > 20 | 10.4 | 4.5 | – | – | – | – | – | – | O=C(NCCNS(=O)(=O)c1ccc(-c2ccccc2Oc2ccc(O)c(O)c2)s1)Nc1cc(Cl)cc(Cl)c1 | 12.4 | –
– | 17 | 2.1 | > 50 | 5.7 | 4.9 | inactive | – | – | – | – | – | O=C(NCCNS(=O)(=O)c1sccc1-c1ccccc1Oc1ccc(O)c(O)c1)Nc1cc(C(F)(F)F)cc(C(F)(F)F)c1 | 8.9 | –
– | 2.9 | 0.59 | 6.5 | 3.5 | 5.1 | inactive | – | – | – | – | – | Cc1ccc(-c2ccsc2S(=O)(=O)NCCNC(=O)Nc2cc(Cl)cc(Cl)c2)c(Oc2ccc(O)c(O)c2)c1 | 6.7 | –
– | – | – | > 20 | 11.7 | > 20 | inactive | inactive | inactive | – | – | – | O=C(NCCNS(=O)(=O)c1ccc(-c2ccccc2OCc2ccccc2)s1)Nc1cc(Cl)cc(Cl)c1 | – | 41
1 | 4.6 | 0.32 | > 20 | 0.6 | 4.5 | – | – | – | – | – | – | O=S(=O)(NCCNC(=S)Nc1cc(C(F)(F)F)cc(C(F)(F)F)c1)c1cc(-c2ccccc2Oc2ccc(O)c(O)c2)cs1 | > 20 | –
– | 4.6 | 1.4 | > 50 | 6.9 | 6.2 | inactive | – | – | – | – | – | O=C(NCCNS(=O)(=O)c1sccc1-c1ccccc1Oc1ccc(O)c(O)c1)Nc1cc(Cl)cc(Cl)c1 | 10.7 | –
– | 13 | 7.1 | > 20 | 3.9 | 7.7 | inactive | – | – | – | – | – | Cc1ccc(-c2ccsc2S(=O)(=O)NCCNC(=O)Nc2ccc([N+](=O)[O-])cc2)c(Oc2ccc(O)c(O)c2)c1 | – | 48
0.93 | 2.6 | 0.37 | > 20 | 18.3 | 10.3 | – | – | – | – | – | – | O=S(=O)(NCCNC(=S)Nc1cc(C(F)(F)F)cc(C(F)(F)F)c1)c1ccc(-c2ccccc2Oc2ccc(O)c(O)c2)s1 | 12.3 | –
1.5 | 3.9 | 0.42 | > 20 | 10.5 | 4.9 | – | – | – | – | – | – | O=C(NCCNS(=O)(=O)c1ccc(-c2ccccc2Oc2ccc(O)c(O)c2)s1)Nc1cc(C(F)(F)F)cc(C(F)(F)F)c1 | 17.1 | –
– | – | – | > 50 | > 50 | > 50 | – | – | – | 20 | 17 | 22 | COc1ccc(Oc2ccccc2-c2ccsc2S(=O)(=O)N2CCN(C(=O)Nc3ccc([N+](=O)[O-])cc3)CC2)cc1OC | > 20 | –

— ChEMBL document CHEMBL5034015, “Structure-Based Optimization of 3-Phenyl-N-(2-(3-phenylureido)ethyl)thiophene-2-sulfonamide Derivatives as Selective Mcl-1 Inhibitors” (J Med Chem, 2021)
